Where two headings read alike, the source gives them in different places.
Legend:
SZ95 sebocytes = assay: Sentinel Lipid Assay (SLA), desaturation index in SZ95 sebocytes; type: cell-based; conditions: Homo sapiens, 72 h; for EC50: desaturation index, lowest dose used 4.6 nM, read-out: SLA EC50
Method in brief: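 SZ95 human sebocytes on fibronectin-coated plates, dosed 72 h at 37 °C with 1:3 dilutions from 10 μM; lipids extracted with deuterated triglyceride internal standards and quantified by LC-MS/MS (MRM) as 11 sentinel lipids. Desaturation index from elastic-net coefficients, normalized to DMSO; Amax relative to a reference LXR agonist.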

SCD1 = assay: Measurement of SCD1 expression in SZ95-SCD1-HiBit cells (HiBiT assay); type: cell-based; conditions: Homo sapiens, 48 h; for EC50: SCD1 protein production, luminescence, initial dilution 1:3 in DMSO, read-out: HiBit EC50
[1] = normalized Amax based on the reference compound Amax of 100%, read-out: SLA Normalized Amax
[2] = SZ95 cells, compared to reference compound, read-out: SLA Amax
[3] = normalized Amax based on the reference compound Amax of 100%, read-out: HiBit Normalized Amax
[4] = SZ95-SCD1-HiBit cells, compared to reference compound, read-out: HiBit Amax

Row | SMILES | Emax (SZ95 sebocytes; [1]) [%] | EC50 (SZ95 sebocytes; SZ95 cells) [nM] | Emax (SZ95 sebocytes; [2]) [%] | Emax (SCD1; [3]) [%] | EC50 (SCD1; SZ95-SCD1-HiBit cells) [nM] | Emax (SCD1; [4]) [%]
1 | CC(C)CS(=O)(=O)c1ccccc1Oc1ccc(-c2noc(CN3C(=O)N(CCN4CCOCC4)C4(CCN(CC5CC5)CC4)C3=O)n2)cc1C(F)(F)F [Compound 27, 8-(cyclopropylmethyl)-3-((3-(4-(2-(isobutylsulfonyl)phenoxy)-3-(trifluoromethyl)phenyl)-1,2,4-oxadiazol-5-yl)methyl)-1-(2-morpholinoethyl)-1,3,8-triazaspiro[4.5]decane-2,4-dione] | 114 | ≤ 4.6 | 109 | 89.1 | 0.254 | 84.7
2 | CC(C)CS(=O)(=O)c1ccccc1Oc1ccc(-c2noc(CN3C(=O)N(CCN4CCOCC4)C4(CCN(C(=O)CC5CC5)CC4)C3=O)n2)cc1C(F)(F)F [Compound 28, 8-(2-cyclopropylacetyl)-3-((3-(4-(2-(isobutylsulfonyl)phenoxy)-3-(trifluoromethyl)phenyl)-1,2,4-oxadiazol-5-yl)methyl)-1-(2-morpholinoethyl)-1,3,8-triazaspiro[4.5]decane-2,4-dione] | 145 | ≤ 4.6 | 139 | 74.8 | 0.697 | 71.1
3 | CC(C)CS(=O)(=O)c1ccccc1Oc1ccc(-c2noc(CN3C(=O)N(CCN4CCOCC4)C4(CCN(C(=O)c5cncnc5)CC4)C3=O)n2)cc1C(F)(F)F [Compound 29, 3-((3-(4-(2-(isobutylsulfonyl)phenoxy)-3-(trifluoromethyl)phenyl)-1,2,4-oxadiazol-5-yl)methyl)-1-(2-morpholinoethyl)-8-(pyrimidine-5-carbonyl)-1,3,8-triazaspiro[4.5]decane-2,4-dione] | 135 | ≤ 4.6 | 129 | 87.7 | 0.796 | 83.4
4 | CC(COc1ccc(-c2noc(CN3C(=O)N(CCN4CCOCC4)C4(CCN(C(=O)c5cncnc5)CC4)C3=O)n2)cc1C(F)(F)F)(C(F)(F)F)C(F)(F)F [Compound 30, 1-(2-morpholinoethyl)-8-(pyrimidine-5-carbonyl)-3-((3-(4-(3,3,3-trifluoro-2-methyl-2-(trifluoromethyl)propoxy)-3-(trifluoromethyl)phenyl)-1,2,4-oxadiazol-5-yl)methyl)-1,3,8-triazaspiro[4.5]decane-2,4-dione] | 85.5 | 34.4 | 82.1 | 89.3 | 1.04 | 84.9
5 | CC(COc1ccc(-c2noc(CN3C(=O)N(CCC4CCOCC4)C4(CCN(C(=O)c5cncnc5)CC4)C3=O)n2)cc1C(F)(F)F)(C(F)(F)F)C(F)(F)F [Compound 31, 8-(pyrimidine-5-carbonyl)-1-(2-(tetrahydro-2H-pyran-4-yl)ethyl)-3-((3-(4-(3,3,3-trifluoro-2-methyl-2-(trifluoromethyl)propoxy)-3-(trifluoromethyl)phenyl)-1,2,4-oxadiazol-5-yl)methyl)-1,3,8-triazaspiro[4.5]decane-2,4-dione] | 100 | ≤ 4.6 | 96.3 | 82.3 | 0.44 | 78.3
6 | CC(C)CS(=O)(=O)c1ccccc1Oc1ccc(-c2noc(CN3C(=O)N(CCN4CCOCC4)C4(CCN(C(=O)CCN(C)C)CC4)C3=O)n2)cc1C(F)(F)F [Compound 32, 8-(3-(dimethylamino)propanoyl)-3-((3-(4-(2-(isobutylsulfonyl)phenoxy)-3-(trifluoromethyl)phenyl)-1,2,4-oxadiazol-5-yl)methyl)-1-(2-morpholinoethyl)-1,3,8-triazaspiro[4.5]decane-2,4-dione] | 100 | ≤ 4.6 | 96.2 | 84.9 | 2.42 | 80.7

Reference: patent publication US11427586B2, “1,2,4-oxadiazole derivatives as liver X receptor agonists” (NOVARTIS AG, priority 2019, dated 2022)
